PubChem BioAssay (NCI)
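Protocol summary: plate cells (96-well), add compound at 5 concentrations, incubate 48 h, interpolate endpoints linearly. TGI is the concentration that stops growth completely.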

Legend:
Assay in all cases: DTP human tumour cell line panel, 48 h
[1] = tested on: HCC-2998 colon
[2] = tested on: K-562 leukemia
[3] = tested on: MALME-3M melanoma
[4] = tested on: MOLT-4 leukemia
[5] = tested on: NCI-H226 lung
[6] = tested on: NCI/ADR-RES ovarian
[7] = tested on: OVCAR-3 ovarian
[8] = tested on: RPMI-8226 leukemia
[9] = tested on: SF-268 CNS
[10] = tested on: SK-MEL-2 melanoma
[11] = tested on: SK-OV-3 ovarian
[12] = tested on: SW-620 colon
[13] = tested on: U251 CNS

Compound	TGI [1]	TGI [2]	TGI [3]	TGI [4]	TGI [5]	TGI [6]	TGI [7]	TGI [8]	TGI [9]	TGI [10]	TGI [11]	TGI [12]	TGI [13]
COc1c(C(=O)O)cccc1-c1cccc(C(=O)NCCN(CCNC(=O)c2cccc(-c3cccc(C(=O)O)c3OC)c2OC)CCNC(=O)c2cccc(-c3cccc(C(=O)O)c3OC)c2OC)c1OC	79 µM	> 100 µM	88.1 µM	> 100 µM	> 100 µM	> 100 µM	64.6 µM	65.2 µM	> 100 µM	> 100 µM	> 100 µM	> 100 µM	> 100 µM
CCC1=NC(N/N=C/c2ccccc2O)=N/C1=C\c1ccccc1O	36.4 µM	> 100 µM	85.4 µM	> 61.5 µM	> 69 µM	24 µM	12.6 µM	53.8 µM	> 66.9 µM	66.2 µM	76.2 µM	> 100 µM	> 100 µM
CCN(CC)CCN1CCN=c2c3cc(OC)ccc3n3cnc4ccc1c2c43	2.13 µM	2.68 µM	2.74 µM	0.999 µM	5.3 µM	2.39 µM	3.26 µM	1.3 µM	2.54 µM	2.18 µM	5.16 µM	1.82 µM	2.74 µM
COc1ccc(OC)c2c(=O)cc(-c3ccccc3)[nH]c12	> 100 µM	> 100 µM	> 100 µM	> 100 µM	> 100 µM	> 100 µM	> 100 µM	> 100 µM	> 100 µM	> 100 µM	> 100 µM	> 100 µM	> 100 µM
Cc1ccc(S(=O)(=O)Oc2coc(CO)cc2=O)cc1	27 µM	> 100 µM	44.5 µM	> 88.5 µM	> 100 µM	> 69.5 µM	31.9 µM	36.5 µM	44.8 µM	57.6 µM	37.7 µM	42 µM	23.7 µM
CNC(=O)C(C)NC(=O)C(Cc1ccccc1)NC(=O)OC(C)(C)C (configuration not stated)	> 100 µM	> 100 µM	> 100 µM	> 100 µM	> 100 µM	> 100 µM	> 100 µM	> 100 µM	> 100 µM	> 100 µM	> 100 µM	> 100 µM	> 100 µM
O=c1[nH]c2nccn2c(Cl)c1Br	36 µM	39.1 µM	38.3 µM	42.6 µM	89.4 µM	73.2 µM	35.7 µM	> 100 µM	49.1 µM	16.3 µM	86.9 µM	60.1 µM	34.4 µM
O=C(/C=C/c1c(O)c2ccccc2[nH]c1=O)CC(=O)C(=O)Nc1cccc(O)c1	> 100 µM	> 100 µM	> 100 µM	> 100 µM	> 100 µM	> 100 µM	> 100 µM	> 100 µM	> 100 µM	> 100 µM	> 100 µM	> 100 µM	> 100 µM
CCCOc1ccc(/C=C/C2=[N+](CCO)CCO2)cc1	> 100 µM	> 100 µM	> 100 µM	> 100 µM	> 100 µM	> 100 µM	> 100 µM	> 100 µM	> 100 µM	> 100 µM	> 100 µM	> 100 µM	> 100 µM
